Experimental data published in PubChem BioAssay AID743160 (Sanford-Burnham Center for Chemical Genomics, 2013).
Active and inactive are the calls of the source. The rule behind the calls is not given here.

The compounds below were run on H9c2 cells, DAPI nuclear count (cytotoxicity), overnight (assay: DAPI-stained nuclei loss in H9c2 cells – cell-based, DAPI fluorescence, cytotoxicity control for triacylglycerol accumulation inhibitor project, SAR follow-up (AID 743160)).

SMILES	IC50
COCCN1Cc2cccc(C(=O)Nc3cccc(-c4nc5ccc(F)cc5[nH]4)c3)c2C1=O	> 50 µM (inactive)
COCCN1Cc2cccc(C(=O)Nc3cccc(-c4nc5ccc(Cl)cc5[nH]4)c3)c2C1=O	> 50 µM (inactive)
COCCn1cnc2cccc(C(=O)Nc3cccc(-c4nc5ccccc5[nH]4)c3)c2c1=O	> 50 µM (inactive)
CCOCCN1Cc2cccc(C(=O)Nc3cccc(-c4nc5ccccc5[nH]4)c3)c2C1=O	> 50 µM (inactive)
Cc1cc(C)c2nc(-c3ccncc3)cc(C(=O)N3CCN(Cc4ccccc4Cl)CC3)c2c1	23.6 µM (inactive)
CCOc1ccccc1NC(=O)c1cccc(NC(=O)c2ccco2)c1	23.2 µM (inactive)
COc1cc2c(cc1OC)C(C)N(C(=O)c1cc3c(C)cc(C)cc3[nH]1)CC2 (stereo unspecified)	> 50 µM (inactive)
Cc1cccc2c(C(=O)N3CCN(c4ccccc4)CC3)cc(-c3ccncc3)nc12	> 50 µM (inactive)
COc1ccc(CCN2Cc3cccc(C(=O)Nc4cccc(-c5nc6ccccc6[nH]5)c4)c3C2=O)cc1OC	> 50 µM (inactive)
COCCN1Cc2cccc(C(=O)Nc3nc4ccccc4[nH]3)c2C1=O	> 50 µM (inactive)
COCCN1Cc2cccc(C(=O)Nc3cccc(-c4nc5ccccc5[nH]4)c3)c2C1=O	> 50 µM (inactive)
COCCN1Cc2cccc(C(=O)Nc3cccnc3)c2C1=O	> 50 µM (inactive)
CCCC(=O)Nc1nc2ccc(NC(=O)c3c(F)c(F)c(OC)c(F)c3F)cc2s1	> 50 µM (inactive)
CCCCN1Cc2cccc(C(=O)Nc3cccc(-c4nc5ccccc5[nH]4)c3)c2C1=O	> 50 µM (inactive)
COCCN1Cc2cccc(C(=O)NCc3cccc(N(C)C)c3)c2C1=O	> 50 µM (inactive)
COc1cccc(-c2cc(C(=O)Nc3ccc(N(C)C(C)=O)cc3)c3cc(Br)ccc3n2)c1	> 50 µM (inactive)
COc1cc(NC(=O)c2cc([N+](=O)[O-])ccc2NC(=O)CN2CCN(c3ccccn3)CC2)cc(OC)c1	> 50 µM (inactive)
COCCN1Cc2cccc(C(=O)Nc3cccc(-c4nc5ccc(C)cc5[nH]4)c3)c2C1=O	> 50 µM (inactive)
O=C(CSc1nc2ccc(Nc3nc(N4CCOCC4)nc(N4CCOCC4)n3)cc2s1)NCc1ccco1	> 50 µM (inactive)
O=C(Nc1cccc(-c2nc3ccccc3[nH]2)c1)c1cccc2c1C(=O)N(CCN1CCOCC1)C2	> 50 µM (inactive)
COCCN1Cc2cccc(C(=O)Nc3cccc(C(=O)Nc4ccccc4OC)c3)c2C1=O	> 50 µM (inactive)
CSCCCN1Cc2cccc(C(=O)Nc3cccc(-c4nc5ccccc5[nH]4)c3)c2C1=O	> 50 µM (inactive)
COCCN1Cc2cccc(C(=O)Nc3nc4ccccc4n3C)c2C1=O	> 50 µM (inactive)
COc1ccccc1CCN1Cc2cccc(C(=O)Nc3cccc(-c4nc5ccccc5[nH]4)c3)c2C1=O	> 50 µM (inactive)
CCn1c(SCC(=O)Nc2nc(-c3ccc(C)cc3)cs2)nnc1-c1ccccc1O	8.1 µM (inactive)
Cc1ccc(-c2csc(NC(=O)CSc3nc4ccccc4c(=O)n3CCCN(C)C)n2)cc1	> 50 µM (inactive)

SMILES	IC50
O=C(CCC(=O)N1CCOc2ccc(Cl)cc21)NCCCN1CCC(Cc2ccccc2)CC1	13.5 µM (inactive)
Cc1ccccc1OCCNc1cc(N2CC(C)NC(C)C2)ccc1[N+](=O)[O-] (stereo unspecified)	> 50 µM (inactive)
Cc1ccc(-c2nc(NC(=O)c3cc(C(C)(C)C)nn3C)sc2C)cc1Cl	> 50 µM (inactive)
CCCC(=O)Nc1nc2ccc(NC(=O)c3ccccc3F)cc2s1	> 50 µM (inactive)
CN(C)CCCn1c(SCC(=O)Nc2nc(-c3cccc(Br)c3)cs2)nc2ccccc2c1=O	27.1 µM (inactive)
O=C(Nc1cccc(-c2nc3ccccc3[nH]2)c1)c1cccc2c1C(=O)N(CCOc1ccccc1)C2	> 50 µM (inactive)
CCOc1ccc(NC(=O)CN(C)C(=O)c2cc(-c3ccc(OC)cc3)nc3ccccc23)cc1OCC	> 50 µM (inactive)
O=C1COc2ccc(C(=O)CSc3nc4ccccc4c(=O)n3-c3ccc(Cl)c(Cl)c3)cc2N1	7.69 µM (inactive)
O=C(Nc1cccc(-c2nc3ccccc3[nH]2)c1)c1cccc2c1C(=O)N(CCc1ccccc1)C2	> 50 µM (inactive)
O=C(Nc1cccc2ncccc12)c1ccc(Cl)cc1	> 50 µM (inactive)
Cc1ccc(Nc2nc(OC(C(F)(F)F)C(F)(F)F)nc(N3CCOCC3)n2)cc1	> 50 µM (inactive)
CCOC(=O)c1cc(-c2ccccc2)sc1NC(=O)C(C)N1C(=O)NC(C)(c2ccc(Cl)cc2)C1=O (stereo unspecified)	> 50 µM (inactive)
O=C(Nc1cccc(-c2nc3ccccc3[nH]2)c1)c1cccc2c1C(=O)N(CC1CC1)C2	> 50 µM (inactive)
COCCCN1Cc2cccc(C(=O)Nc3cccc(-c4nc5ccccc5[nH]4)c3)c2C1=O	> 50 µM (inactive)
Cc1ccccc1NC(=O)CSc1nc2ccc(Nc3nc(N4CCOCC4)nc(N4CCOCC4)n3)cc2s1	40 µM (inactive)
COCCN1Cc2cccc(C(=O)Nc3cccc(-c4nc5ccc(C(F)(F)F)cc5[nH]4)c3)c2C1=O	> 50 µM (inactive)
CCN(CC)S(=O)(=O)c1ccc(N2CCOCC2)c(NC(=O)c2[nH]c(C)c(C(C)=O)c2C)c1	> 50 µM (inactive)
CCC(C)(C)NC(=O)C(c1ccc(C)cc1)N(Cc1ccco1)C(=O)CCC(=O)Nc1nccs1 (stereo unspecified)	> 50 µM (inactive)
O=C(CSc1nc2ccc(Nc3nc(N4CCOCC4)nc(N4CCOCC4)n3)cc2s1)Nc1ccccc1Cl	27.8 µM (inactive)
Cc1ccccc1NC(=O)CSc1nc(Nc2ccccc2)nc(N2CCOCC2)n1	> 50 µM (inactive)
CCOC(=O)c1cccc(NC(=O)c2cccc3c2C(=O)N(CCOC)C3)c1	> 50 µM (inactive)
O=[N+]([O-])c1ccc(Nc2nc(NC3CCCCC3)nc(N3CCCC3)n2)cc1	11 µM (inactive)
CCC(C)(C)NC(=O)C(c1ccc(OC)cc1)N(Cc1cccs1)C(=O)CCC(=O)Nc1cc(C)on1 (stereo unspecified)	> 50 µM (inactive)
COCCN1Cc2cccc(C(=O)Nc3cccc(C(=O)Nc4ccccc4)c3)c2C1=O	> 50 µM (inactive)
CCCCSc1nc2ccc(Nc3nc(N4CCOCC4)nc(N4CCOCC4)n3)cc2s1	> 50 µM (inactive)
